Measured values from patent publication US8987209B2, “N-carboxyalkyl-auristatin and the use thereof” (Seattle Genetics, Inc., priority 2010, dated 2015).
Square brackets hold non-standard residues; d marks the D form. Peptide text beside a SMILES is read from it. * marks the point of attachment. NMeVal(N-(CH2)3COOH) = CC(C)[C@@H](C(=O)*)N(C)CCCC(=O)O; Dolaproine = CO[C@@H]([C@@H]1CCCN1)[C@@H](C)C(=O)O; Dil = CC[C@H](C)[C@H](NC)[C@@H](CC(=O)O)OC; X3 = CC(C)[C@@H](C(=O)*)N(C)CCCCCC(=O)O; NMe(benzyl) = CN(Cc1ccccc1)*; Morpholide = C1CN(*)CCO1; X1 = O=C(NN*)c1ccccc1; NHBn = c1ccc(CN*)cc1; OBn = c1ccc(CO*)cc1

Tests used:
[1] = Cell permeability, flux assay using Caco-2 cells; type: in vitro ADME; details: human, basal to apical, 2 hours incubation
Method: B-5. Determination of Cell Permeability:
The cell permeability of a substance can be analyzed by means of in vitro tests in a flux assay using Caco-2-cells [M. D. Troutman and D. R. Thakker, Pharm. Res. 20 (8), 1210-1224 (2003)]. For this analysis the cells were cultured on 24 membrane filter plates for 15 to 16 days. In order to determine permeation the test substance in question was given either apical (A) to a HEPES buffer or basal (B) on the cells and incubated for 2 hours. The samples were withdrawn after 0 and 2 hours from the cis and trans compartments. The samples were separated by means of HPLC (Agilent 1200, Böblingen, Germany) using reverse-phase columns. The HPLC system was coupled to a triple quadropol mass spectrometer API 4000 (Applied Biosystems Applera, Darmstadt, Germany) via a turbo ion spray. The permeability was evaluated by means of the Papp value which was calculated with the help of the formula published by Schwab et al. [D. Schwab et al., J. Med. Chem. 46, 1716-1725 (2003)]. A substance was classified as active if the ratio of Papp (B-a) to Papp (A-B) was >2 or <0.5.
The permeability from B to A [Papp^(B-A)] is particularly important for toxophores which are being released intracellular: The lower the permeability the longer the residence time of the substance in the cell after intracellular release and, consequently, the more time available for interaction with the biochemical target (here: tubulin).

[2] = system: human renal carcinoma cell line 786-0; experiment: Anti-proliferative effect on renal cell carcinoma 786-0 cell line (MTT assay); type: cell-based; details: Homo sapiens, 786-0 cells, incubation 48 to 96 hours, serum free medium or 2% FCS
Method: B-1. Determination of Anti-proliferative Effects of Renal Cell Carcinoma 786-0 Cell Line:
A defined number of cells of the human renal carcinoma cell line 786-0 were cultured in a 96 well micro titer plate in rich medium (2500 or 7.000 cells/well) and then incubated over night at 37° C./5% CO2. After 18 hours the seed medium was replaced by a serum free medium or medium with 2% FCS. The treatment began with measuring out the respective test substances in varying concentrations (10^−5 M to 10^−14 M). Incubation times of between 48 hours and 96 hours were chosen. The proliferation was determined by means of the MTT assay (ATCC, Manassas, Va., USA, catalogue no. 30-1010K). After completion of incubation period the MTT reagent was incubated with the cells for 4 hours before lysis occurred over night by measuring out the detergent. The created stain was detected at 570 nm. The proliferation of the cells, which were treated identically to the other cells but without the test substance was defined as the 100% value. The data obtained from this test represent triple determinations and at least two experiments had been carried out independently of each other.

[3] = system: HT-29 wt cell line; experiment: Anti-proliferative effect on HT-29 wt cell line (MTT assay); type: cell-based, human; details: Homo sapiens, HT-29 wt cells, incubation 48 to 96 hours, medium with 10% FCS
Method: B-2. Determination of Anti-proliferative Effects of HT-29 wt Cell Line:
After 18 hours the seed medium was replaced by a fresh medium with 10% FCS. The treatment started with measuring out the respective test substance. The dose-response curves were determined of the investigative substances with a concentration of 10^−5 M to 10^−14 M (1:10 dilutions). Incubation times of between 48 hours and 96 hours were chosen. The proliferation was detected by means of the MTT assay (ATCC, Manassas, Va., USA, catalogue no. 30-1010K). After completion of selected incubation period the MTT reagent was incubated with the cells for 4 hours before lysis occurred over night by measuring out the detergent. The created stain was detected at 570 nm. The proliferation of the cells, which were treated identically to the other cells but without the test substance, was defined as the 100% value. The data obtained from this test represent triple determinations and at least two experiments had been carried out independently of each other.

Row | SMILES | Papp B→A at 2 h [1] [×10⁻⁶ cm/s] | IC50 [2] [nM] | IC50 [3] [nM]
1 | CC[C@H](C)[C@@H]([C@@H](CC(=O)N1CCC[C@H]1[C@H](OC)[C@@H](C)C(=O)N[C@@H](Cc1ccccc1)C(=O)OC)OC)N(C)C(=O)[C@@H](NC(=O)[C@H](C(C)C)N(C)CCCC(=O)O)C(C)C [Example 7] ({NMeVal(N-(CH2)3COOH)}-V[Dil][Dolaproine]F-OMe) | 1.8 | – | –
2 | CC[C@H](C)[C@@H]([C@@H](CC(=O)N1CCC[C@H]1[C@H](OC)[C@@H](C)C(=O)N[C@@H](Cc1c[nH]c2ccccc12)C(=O)OCc1ccccc1)OC)N(C)C(=O)[C@@H](NC(=O)[C@H](C(C)C)N(C)CCCC(=O)O)C(C)C [Example 8, N-(3-carboxypropyl)-N-methyl-L-valyl-N-[(3R,4S,5S)-1-{(2S)-2-[(1R,2R)-3-{[(2S)-1-(benzyloxy)-3-(1H-indol-3-yl)-1-oxopropane-2-yl]amino}-1-methoxy-2-methyl-3-oxopropyl]pyrrolidin-1-yl}-3-methoxy-5-methyl-1-oxoheptan-4-yl]-N-methyl-L-valinamide] ({NMeVal(N-(CH2)3COOH)}-V[Dil][Dolaproine]W-OBn) | 2.2 | 5.2 | 0.5
3 | CC[C@H](C)[C@@H]([C@@H](CC(=O)N1CCC[C@H]1[C@H](OC)[C@@H](C)C(=O)N[C@@H](Cc1ccccc1)C(=O)N(C)Cc1ccccc1)OC)N(C)C(=O)[C@@H](NC(=O)[C@H](C(C)C)N(C)CCCC(=O)O)C(C)C [Example 9, N-(3-carboxypropyl)-N-methyl-L-valyl-N-[(3R,4S,5S)-1-{(2S)-2-[(1R,2R)-3-({(2S)-1-[benzyl(methyl)amino]-1-oxo-3-phenylpropane-2-yl}amino)-1-methoxy-2-methyl-3-oxopropyl]pyrrolidin-1-yl}-3-methoxy-5-methyl-1-oxoheptan-4-yl]-N-methyl-L-valinamide] ({NMeVal(N-(CH2)3COOH)}-V[Dil][Dolaproine]F-{NMe(benzyl)}) | – | 53 | 4.4
4 | CCOC(=O)[C@]1(NC(=O)[C@H](C)[C@@H](OC)[C@@H]2CCCN2C(=O)C[C@@H](OC)[C@H]([C@@H](C)CC)N(C)C(=O)[C@@H](NC(=O)[C@H](C(C)C)N(C)CCCC(=O)O)C(C)C)C[C@@H]1c1ccccc1 [Example 12, N-(3-carboxypropyl)-N-methyl-L-valyl-N-[(3R,4S,5S)-1-{(2S)-2-[(1R,2R)-3-{[(1S,2R)-1-(ethoxycarbonyl)-2-phenylcyclopropyl]amino}-1-methoxy-2-methyl-3-oxopropyl]pyrrolidin-1-yl}-3-methoxy-5-methyl-1-oxoheptan-4-yl]-N-methyl-L-valinamide] | 1.5 | 13 | –
5 | CC[C@H](C)[C@@H]([C@@H](CC(=O)N1CCC[C@H]1[C@H](OC)[C@@H](C)C(=O)N[C@@H](Cc1ccccc1)C(=O)NNC(=O)c1ccccc1)OC)N(C)C(=O)[C@@H](NC(=O)[C@H](C(C)C)N(C)CCCC(=O)O)C(C)C [Example 14, (3R,4S,7S,10S)-3-(2-{(2S)-2-[(1R,2R)-3-{[(2S)-1-(2-benzoylhydrazino)-1-oxo-3-phenylpropane-2yl]amino}-1-methoxy-2-methyl-3-oxopropyl]pyrrolidin-1-yl}-2-oxoethyl)-4-[(2S)-butane-2-yl]-7,10-diisopropyl-5,11-dimethyl-6,9-dioxo-2-oxa-5,8,11-triazapentadecan-15-acid] ({NMeVal(N-(CH2)3COOH)}-V[Dil][Dolaproine]F-X1) | 0.3 | 59 | –
6 | CC[C@H](C)[C@@H]([C@@H](CC(=O)N1CCC[C@H]1[C@H](OC)[C@@H](C)C(=O)N[C@@H](Cc1c[nH]c2ccccc12)C(=O)NCc1ccccc1)OC)N(C)C(=O)[C@@H](NC(=O)[C@H](C(C)C)N(C)CCCC(=O)O)C(C)C [Example 16, N-(3-carboxypropyl)-N-methyl-L-valyl-N-[(3R,4S,5S)-1-{(2S)-2-[(1R,2R)-3-{[(2S)-1-(benzyl-amino)-3-(1H-indol-3-yl)-1-oxopropane-2-yl]amino}-1-methoxy-2-methyl-3-oxopropyl]pyrrolidin-1-yl}-3-methoxy-5-methyl-1-oxoheptan-4-yl]-N-methyl-L-valinamide] ({NMeVal(N-(CH2)3COOH)}-V[Dil][Dolaproine]W-NHBn) | – | 12 | 0.1
7 | CC[C@H](C)[C@@H]([C@@H](CC(=O)N1CCC[C@H]1[C@H](OC)[C@@H](C)C(=O)N[C@@]1(C(N)=O)C[C@@H]1c1ccccc1)OC)N(C)C(=O)[C@@H](NC(=O)[C@H](C(C)C)N(C)CCCC(=O)O)C(C)C [Example 17, N-(3-carboxypropyl)-N-methyl-L-valyl-N-[(3R,4S,5S)-1-{(2S)-2-[(1R,2R)-3-{[(1S,2R)-1-carbamoyl-2-phenylcyclopropyl]amino}-1-methoxy-2-methyl-3-oxopropyl]pyrrolidin-1-yl}-3-methoxy-5-methyl-1-oxoheptan-4-yl]-N-methyl-L-valinamide] | 0.2 | – | –
8 | CC[C@H](C)[C@@H]([C@@H](CC(=O)N1CCC[C@H]1[C@H](OC)[C@@H](C)C(=O)N[C@@H](Cc1c[nH]c2ccccc12)C(N)=O)OC)N(C)C(=O)[C@@H](NC(=O)[C@H](C(C)C)N(C)CCCCCC(=O)O)C(C)C [Example 19] (X3-V[Dil][Dolaproine]W-NH2) | 0.2 | – | –
9 | CC[C@H](C)[C@@H]([C@@H](CC(=O)N1CCC[C@H]1[C@H](OC)[C@@H](C)C(=O)N[C@@H](Cc1ccccc1)C(=O)N1CCOCC1)OC)N(C)C(=O)[C@@H](NC(=O)[C@H](C(C)C)N(C)CCCC(=O)O)C(C)C [Example 23, N-(3-carboxypropyl)-N-methyl-L-valyl-N-[(3R,4S,5S)-3-methoxy-1-{(2S)-2-[(1R,2R)-1-methoxy-2-methyl-3-{[(2S)-1-(morpholin-4-yl)-1-oxo-3-phenylpropane-2-yl]amino}-3-oxopropyl]pyrrolidin-1-yl}-5-methyl-1-oxoheptan-4-yl]-N-methyl-L-valinamide] ({NMeVal(N-(CH2)3COOH)}-V[Dil][Dolaproine]F-Morpholide) | 0.2 | – | –
10 | CC[C@H](C)[C@@H]([C@@H](CC(=O)N1CCC[C@H]1[C@H](OC)[C@@H](C)C(=O)N[C@H](C(=O)NCc1ccccc1)[C@@H](C)O)OC)N(C)C(=O)[C@@H](NC(=O)[C@H](C(C)C)N(C)CCCC(=O)O)C(C)C [Example 25, N-(3-carboxypropyl)-N-methyl-L-valyl-N-[(3R,4S,5S)-1-{(2S)-2-[(1R,2R)-3-{[(2S,3R)-1-(benzylamino)-3-hydroxy-1-oxobutane-2-yl]amino}-1-methoxy-2-methyl-3-oxopropyl]pyrrolidin-1-yl}-3-methoxy-5-methyl-1-oxoheptan-4-yl]-N-methyl-L-valinamide] ({NMeVal(N-(CH2)3COOH)}-V[Dil][Dolaproine]T-NHBn) | – | 164 | 1.5
11 | CC[C@H](C)[C@@H]([C@@H](CC(=O)N1CCC[C@H]1[C@H](OC)[C@@H](C)C(=O)N[C@H](COCc1ccc(C(=O)OC)cc1)Cc1ccccc1)OC)N(C)C(=O)[C@@H](NC(=O)[C@H](C(C)C)N(C)CCCC(=O)O)C(C)C [Example 26, N-(3-carboxypropyl)-N-methyl-L-valyl-N-[(3R,4S,5S)-3-methoxy-1-{(2S)-2-[(1R,2R)-1-methoxy-3-{[(2S)-1-{[4-(methoxycarbonyl)benzyl]oxy}-3-phenylpropane-2-yl]amino}-2-methyl-3-oxopropyl]pyrrolidin-1-yl}-5-methyl-1-oxoheptan-4-yl]-N-methyl-L-valinamide] | – | 10 | 1.5
